Results as given in patent US20060111271A1 (priority 2004, published 2006).
Like-named read-outs stand apart in the source and are kept apart here.

Columns and labels:
anti-nicotine antibodies = type: binding
[1] = liver, cited from earlier work
[2] = five BSA digoxin immunised rabbits, cited from earlier work
[3] = antibodies elicited by Nic-O-Su-Cholera Toxin B conjugates, relative to nicotine

c1cncc([C@@H]2CCCN2)c1 [nornicotine]
immunologic cross-reactivity (anti-nicotine antibodies; [3]): 4%

CN1CCCC1c1cccnc1 (centres unmarked) [nicotine]
nicotine transformed to nicotine N'-oxide ([1]; flavin containing monooxygenase 3): 4-7% | nicotine glucuronidation, share of metabolized nicotine ([1]; uridine diphosphate-glucuronosyltransferase): 3-5%

C[C@H]1O[C@@H](O[C@H]2[C@@H](O)C[C@H](O[C@H]3[C@@H](O)C[C@H](O[C@H]4CC[C@@]5(C)[C@H](CC[C@@H]6[C@@H]5C[C@@H](O)[C@]5(C)[C@@H](C7=CC(=O)OC7)CC[C@]65O)C4)O[C@@H]3C)O[C@@H]2C)C[C@H](O)[C@@H]1O [digoxin]
mean serum concentration of digoxin ([2]; at one year): 85 nanogram/ml | mean serum concentration of digoxin ([2]; initially): 8200 nanogram/ml

CN1C(=O)CC[C@H]1c1cccnc1 [cotinine]
immunologic cross-reactivity (anti-nicotine antibodies; [3]): 1.1%

O=C(O)c1cccnc1 [nicotinic acid]
immunologic cross-reactivity (anti-nicotine antibodies): 0.09%

CN1C(=O)C[C@@H](C(=O)O)[C@@H]1c1cccnc1 (relative stereo) [trans-4-cotininecarboxylic acid]
immunologic cross-reactivity (anti-nicotine antibodies; [3]): 0.19%
